By Ki is commonly meant the equilibrium dissociation constant of an inhibitor or competing ligand from its target. High values mean weaker binding, low ones tighter binding.

Where only a bound is given, the exact number is not on record here.

The values below come from ChEMBL document CHEMBL1124646, “Sulfur-containing 1,3-dialkylxanthine derivatives as selective antagonists at A1-adenosine receptors” (J Med Chem, 1989).

For assay [1], the target named is T1, Adenosine receptor A1 (Rattus norvegicus, UniProt P25099).
T1 sequence (P25099 whole entry): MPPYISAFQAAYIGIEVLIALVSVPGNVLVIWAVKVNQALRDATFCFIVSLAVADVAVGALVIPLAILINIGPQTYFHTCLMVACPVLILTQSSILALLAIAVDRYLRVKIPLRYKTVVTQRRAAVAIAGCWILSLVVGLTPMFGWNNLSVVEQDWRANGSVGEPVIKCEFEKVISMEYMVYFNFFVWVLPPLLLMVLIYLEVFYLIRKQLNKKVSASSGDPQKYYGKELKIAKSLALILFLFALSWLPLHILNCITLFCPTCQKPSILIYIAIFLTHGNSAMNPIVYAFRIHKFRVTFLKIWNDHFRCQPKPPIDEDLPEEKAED
Briefly: Inhibition of binding of 1 nM [3H]N-6-(phenylisopropyl)adenosine to adenosine A1 receptor in rat cortical membranes. Type of assay: cell membranes, Membrane.

In assay [2] the target is T2, Adenosine A2 receptor (Rattus norvegicus, UniProt P29276+P30543).
Description: Inhibition of binding of [3H]5'-(N-ethylcarbamoyl)-adenosine to adenosine A2 receptor in rat striatal membranes
Assay [3] has as its target Adenosine receptors; A1 & A2 (Rattus norvegicus) (UniProt P29276+P25099+P30543). Nature of the assay: Inhibitory selectivity for A2 receptor in rat striatal membranes and A1 receptor in rat cortical membranes. Type of assay: cell membranes. Particulars: Striatum, Membrane.
Assay [4] addresses T2, Adenosine A2 receptor. Type of assay: cell membranes, Membrane.
For assay [5], the target named is Adenosine receptor A1 (Rattus norvegicus). Nature of the assay: Inhibitory selectivity for A1 receptor in rat striatal membranes and Adenosine A1 receptor in rat cortical membranes.
Assay [6] addresses T1, Adenosine receptor A1. Briefly: Inhibition of 1 nM [3H]N-6-(phenylisopropyl)adenosine binding to A1 receptors in rat cortical membranes. Format: cell membranes, Membrane.
Assay [7] addresses T1, Adenosine receptor A1. Briefly: Inhibition of 1 nM [3H]N-6-(phenylisopropyl)adenosine binding to adenosine A1 receptors in rat cortical membranes. Type of assay: cell membranes, Membrane.
Assay [8] concerns the target Adenosine receptors; A1 & A2 (Rattus norvegicus, UniProt P29276+P25099+P30543). Briefly: Inhibitory selectivity for A1 receptor in rat striatal membranes and Adenosine A1 receptor in rat cortical membranes. Format: cell membranes, Striatum, Membrane.

As to `CCCn1c(=O)c2[nH]c(-c3ccc(OCC(=O)NCCNC)cc3)nc2n(CCC)c1=O`, on Adenosine receptor A1 [1], affinity was put at a Ki of 15.1 nM.
`CCCn1c(=O)c2nc(-c3ccc(OCC(=O)O)cc3)[nH]c2n(CCC)c1=S`: on Adenosine A2 receptor [2], the Ki came to 315 nM.
For the compound `Br.Br.CCCn1c(=O)c2nc(-c3ccc(OCC(=O)NCCNC(=O)C(N)CCCCN)cc3)[nH]c2n(CCC)c1=S` (stereo not drawn), the Ki on Adenosine receptor A1 [1] was 13 nM; at Adenosine A2 receptor [2], 46.8 nM.
Take `CCCn1c(=O)c2nc(-c3ccc(OCC(=O)OCC)cc3)[nH]c2n(CCC)c1=O`: the Ki at Adenosine A2 receptor [2] was above 5000 nM.
Regarding `CCCn1c(=O)c2nc(-c3ccco3)[nH]c2n(CCC)c1=S`, the inhibition constant Ki at Adenosine receptor A1 [1] amounted to 32 nM; on Adenosine A2 receptor [2], 594 nM.
In the case of `CCCn1c(=S)c2nc(C3CCCC3)[nH]c2n(CCC)c1=S`, the Ratio in assay [3] turned out to be 572. The Ki at Adenosine A2 receptor [4] was determined as 2780 nM.
On to `CCCn1c(=O)c2nc(-c3ccccc3)[nH]c2n(CCC)c1=S`, for which the values for the Ki on Adenosine receptor A1 [1] and at Adenosine A2 receptor [2] were 16.1 nM and 422 nM, respectively.
With `CCCn1c(=O)c2nc(-c3ccc(OCC(=O)NCCNC(=O)CCCCCCC(=O)ON4C(=O)CCC4=O)cc3)[nH]c2n(CCC)c1=S`, the Ki in assay [5] is 33.5 nM.
Take `CCCn1c(=O)c2nc(-c3ccc(OCC(=O)OCC)cc3)[nH]c2n(CCC)c1=S`: the Ki on Adenosine A2 receptor [2] is given as above 5000 nM.
In the case of `Cn1c(=O)c2nc(-c3ccco3)[nH]c2n(C)c1=S`, the Ki is 182 nM at Adenosine receptor A1 [1] and 4450 nM at Adenosine A2 receptor [2].
`Cn1c(=O)c2nc(-c3ccccc3)[nH]c2n(C)c1=S`: the Ki was 38 nM at Adenosine receptor A1 [1] and above 7000 nM on Adenosine A2 receptor [2].
At Adenosine A2 receptor [2], `CCCn1c(=O)c2nc(-c3ccc(OCC(=O)NCCN(C)C)cc3)[nH]c2n(CCC)c1=S` displayed a Ki of 27.9 nM.
At Adenosine A2 receptor [2], `CCCn1c(=O)c2nc(-c3cccs3)[nH]c2n(CCC)c1=O` came in with a Ki of 381 nM.
The compound `Cn1c(=O)c2nc(-c3cccs3)[nH]c2n(C)c1=S` displayed a Ki on Adenosine A2 receptor [2] of 1740 nM.
Turning to `CCCn1c(=O)c2nc(-c3ccc(OCC(=O)NCCN)cc3)[nH]c2n(CCC)c1=S`, on Adenosine A2 receptor [2], the Ki came to 26.3 nM.
`CCCn1c(=O)c2nc(-c3cccs3)[nH]c2n(CCC)c1=S` showed an inhibition constant Ki on Adenosine A2 receptor [2] above 5000 nM.
Turning to `CCCn1c(=O)c2nc(-c3ccc(OCC(=O)NCCNC(=O)CCCCCCC(=O)NCc4cccs4)cc3)[nH]c2n(CCC)c1=O`, the Ratio in assay [3] turned out to be 85. At Adenosine A2 receptor [4], this compound had a Ki of 630 nM.
On Adenosine A2 receptor [2], `Cn1c(=O)c2nc(-c3ccsc3)[nH]c2n(C)c1=O` showed a Ki of 841 nM.
For `Cn1c(=S)c2nc(-c3ccccc3)[nH]c2n(C)c1=O`, on Adenosine A2 receptor [2], the Ki came to 11300 nM.
On to `CCCn1c(=O)c2nc(-c3ccc(OCC(=O)NCCNC(=O)Cc4cccs4)cc3)[nH]c2n(CCC)c1=O`, for which the Ki at Adenosine A2 receptor [2] is recorded as 147 nM.
For the compound `CCn1c(=S)c2nc(-c3ccccc3)[nH]c2n(CC)c1=O`, the Ki at Adenosine A2 receptor [2] was 3510 nM.
As to `CCCn1c(=O)c2nc(-c3ccsc3)[nH]c2n(CCC)c1=O`, the Ki on Adenosine A2 receptor [2] came to 121 nM.
In the case of `CCCn1c(=O)c2[nH]c(-c3ccc(OCC(=O)NCCNC(=O)[C@@H](Cc4cccs4)NC(=O)OC(C)(C)C)cc3)nc2n(CCC)c1=O`, at Adenosine receptor A1 [6], the inhibition constant Ki amounted to 17 nM.
On to `Cn1c(=S)c2nc(C3CCCC3)[nH]c2n(C)c1=O`, for which, in assay [3], the Ratio was found to be 44.4. At Adenosine A2 receptor [4], this compound returned a Ki of 8980 nM.
`Cn1c(=O)c2nc(-c3cccs3)[nH]c2n(C)c1=O` displayed a Ki at Adenosine A2 receptor [2] of 1630 nM.
As for `Cn1c(=O)c2nc(C3CCCC3)[nH]c2n(C)c1=S`, in assay [3], the Ratio is 136. For the same compound, the Ki on Adenosine receptor A1 [7] turned out to be 10.2 nM; on Adenosine A2 receptor [4] it was 1390 nM.
In the case of `CCCn1c(=S)c2nc(C3CCCC3)[nH]c2n(CCC)c1=O`, the Ki on Adenosine A2 receptor [2] was determined as 3360 nM.
`CCCn1c(=O)c2nc(-c3ccc(OCC(=O)NCCNC(=O)C(N)CCCCNC(=O)OCc4ccccc4)cc3)[nH]c2n(CCC)c1=O.O=C(O)C(F)(F)F` (stereo not drawn): the Ratio in assay [3] is 30. Further, the Ki amounted to 6.4 nM on Adenosine receptor A1 [7] and 191 nM at Adenosine A2 receptor [4].
`CCCn1c(=O)c2nc(-c3ccc(OCC(=O)N(C)CCN(C)C)cc3)[nH]c2n(CCC)c1=S` had a Ki on Adenosine A2 receptor [2] of 24.5 nM.
Consider `CCCn1c(=O)c2nc(-c3ccco3)[nH]c2n(CCC)c1=O`, for which the Ki turned out to be 37 nM on Adenosine receptor A1 [1] and 640 nM at Adenosine A2 receptor [2].
With `Cn1c(=S)c2nc(C3CCCC3)[nH]c2n(C)c1=S`, the Ratio in assay [3] stood at 285. Further, the Ki at Adenosine A2 receptor [4] turned out to be 11500 nM.
Regarding `CCCn1c(=O)c2nc(-c3ccc(OCC(=O)NCCNC(=O)C(N)Cc4cccs4)cc3)[nH]c2n(CCC)c1=O.O=C(O)C(F)(F)F` (stereo not drawn), the inhibition constant (Ki) in assay [8] is 1.3 nM.
`CCCn1c(=O)c2nc(-c3ccc(OCC(=O)NCCN(C)C)cc3)[nH]c2n(CCC)c1=O`: the Ki on Adenosine receptor A1 [1] amounted to 2.8 nM; on Adenosine A2 receptor [2], 5.03 nM.
For the compound `Cn1c(=O)c2nc(-c3ccco3)[nH]c2n(C)c1=O`, the inhibition constant Ki on Adenosine receptor A1 [1] is 350 nM; at Adenosine A2 receptor [2], 2780 nM.
`CCCn1c(=O)c2nc(-c3ccc(OCC(=O)NCCNC(=O)C(CCCCNC(=O)OCc4ccccc4)NC(=O)OC(C)(C)C)cc3)[nH]c2n(CCC)c1=S` (stereo not drawn): the Ki turned out to be 84 nM at Adenosine receptor A1 [1] and 870 nM on Adenosine A2 receptor [2].
For the compound `Cn1c(=O)c2nc(-c3ccoc3)[nH]c2n(C)c1=O`, the Ki on Adenosine receptor A1 [1] amounted to 72.4 nM; on Adenosine A2 receptor [2], 984 nM.
`CCCn1c(=O)c2[nH]c(-c3ccc(OCC(=O)NCCNC(=O)C(CCCCNC(=O)OCc4ccccc4)NC(=O)OC(C)(C)C)cc3)nc2n(CCC)c1=O` (stereo not drawn) had a Ki on Adenosine receptor A1 [6] of 12 nM.
Consider `CCCn1c(=O)c2[nH]c(C3CCCC3)nc2n(CCC)c1=S`, for which, at Adenosine A2 receptor [2], the inhibition constant (Ki) is given as 314 nM.
Regarding `CCCn1c(=O)c2nc(-c3ccc(OCC(=O)NCCNC(=O)C(N)CCCCNC(=O)OCc4ccccc4)cc3)[nH]c2n(CCC)c1=S.O=C(O)C(F)(F)F` (stereo not drawn), the Ratio in assay [3] is 36. Also, the results for the Ki at Adenosine receptor A1 [7] and at Adenosine A2 receptor [4] were 6.8 nM and 322 nM, respectively.
Regarding `Br.Br.CCCn1c(=O)c2nc(-c3ccc(OCC(=O)NCCNC(=O)C(N)CCCCN)cc3)[nH]c2n(CCC)c1=O` (stereo not drawn), the inhibitory constant (Ki) worked out at 0.87 nM on Adenosine receptor A1 [1] and 180 nM at Adenosine A2 receptor [2].
Turning to `CCCn1c(=O)c2nc(-c3ccc(OCC(=O)NCCNC(=O)Cc4ccc(I)s4)cc3)[nH]c2n(CCC)c1=O`, the Ratio in assay [3] is 10.3. Besides, the Ki at Adenosine A2 receptor [4] is 116 nM.
